Results from patent US11149018B2, “Substituted N-arylethyl-2-aminoquinoline-4-carboxamides and use thereof” (Bayer Aktiengesellschaft, priority 2017, dated 2021).
Blank lines part the entries; values can stand above or below the compound they belong to.

Experiments:
[1] = system: C57Bl6J mice with DQ12 silica-induced pulmonary fibrosis; assay: Silica-induced pulmonary fibrosis in mice, therapeutic chronic 30-day study; format: in vivo, mouse; conditions: for Hydroxyproline [ng/lung]: day 10-30, mean ± SEM
Protocol: B-23. Silica-Induced Pulmonary Fibrosis in Mice: Therapeutic Chronic 30-Day Study with FP Antagonists
Adult female C57Bl6J mice (Charles River Laboratories, Sulzfeld, Germany) having a weight of 18-20 g were anaesthetized in a chamber with isoflurane (3% v/v) and treated intratracheally with 2.5 mg of crystalline DQ12 silica dissolved in 70 μL of sterile phosphate-buffered saline. Untreated control mice received the same volume of phosphate-buffered saline. […] 30 days after the installation of silica, the animals were anaesthetized with an intraperitoneal injection of ketamine/medetomidine (50 mg/kg and 0.33 mg/kg) combined with a subcutaneous injection of Temgesic (0.06 mg/kg) and sacrifice by exsanguination. Thereafter, the trachea was cannulated, and the animals' lungs were lavaged three times with 0.5 ml of ice-cold phosphate-buffered saline. Thereafter, the lungs were removed, weighed and shock-frozen in dry ice. […] The data are mean values±SEM of 8-12 animals per group. The statistical analysis was conducted with the unpaired Student's t test. P values<0.05 were considered to be significant.

[2] = system: C57BL/6J mice with CCl4-induced hepatic fibrosis; assay: Carbon tetrachloride (CCl4)-induced hepatic fibrosis in mice; format: in vivo, mouse
Protocol: B-21. Carbon Tetrachloride (CCl4)-Induced Hepatic Fibrosis in Mice
Sixty C57BL/6J mice (Charles River, male, 8 weeks old) were randomized and divided equally into 4 groups (15 mice per group). Group 1 served as the untreated healthy control group, whereas groups 2-4 served as mice suffering from hepatic fibrosis. Hepatic fibrosis was induced by intraperitoneal injection of 50 μl CCl4/olive oil suspension (CCl4+olive oil, 1+9 v/v) three times per week (Monday, Wednesday and Friday) over the entire study period. […] The CCl4-treated mice of group 4 served as group treated with a compound of the formula (I). The oral treatment of group 3 with the vehicle solution and of group 4 with a compound of the formula (I) started on day 1 and was continued twice daily (in the morning and evening) over the complete study period of two weeks. At the end of the study, all animals were sacrificed under anaesthetic, and the livers were removed fixed in 4% buffered formaldehyde solution for the subsequent histological processing and analysis. For this purpose, liver samples for all animals were embedded in paraffin and 3 μm-thick paraffin sections were produced. […] The sections were scanned with 20× enlargement and a light intensity of 4.8 V. The images thus produced were then converted to JPG format, and the red-stained area was quantified by means of ImageJ software (National Institute of Health, USA). […]

[3] = system: C57Bl6J mice with unilateral ureteral obstruction; assay: Unilateral ureteral obstruction (UUO) in mice (renal fibrosis); format: in vivo, mouse; conditions: 10 days after UUO, mean ± SD, n=10; for SR/FG positive area [%]: SiriusRed/FastGreen collagen staining of kidney; for αSMA positive area [%]: immunohistochemistry of kidney; for Gene expression CTGF / Gene expression Col1α1 / Gene expression Col3α1 / Gene expression Col4α1 / Gene expression IL1-β / Gene expression IL-6 / Gene expression KC / Gene expression MCP-1 / Gene expression TGF-β / Gene expression αSMA: kidney, % of placebo group (=100%)
Text: B-22. Animal Model of Unilateral Ureteral Obstruction (UUO) in Mice (Renal Fibrosis) Unilateral ureteral obstruction in mice and rats is a widely used animal model for interstitial renal fibrosis (Chevalier et al., Kidney Int. 2009, 75, 1145-1152). Permanent occlusion of the ureter leads, as a result of the sustained accumulation of the urine, to increased inflammatory cell infiltration into the interstitium, to tubular cell death and to irreversible loss of the renal parenchyma. After 5 to 7 days, owing to the elevated deposition of extracellular matrix proteins, interstitial fibrosis arises. Adult male […] mice (Charles River Laboratories, Sulzfeld, Germany) having a weight of 20-22 g were anaesthetized with isoflurane, then, after opening up the abdominal cavity, a ureter was ligated and severed beneath the ligature. In the sham-operated control mice (SHAM), the abdominal cavity was merely opened up, but the ureter was not ligated. […] 10 days after the UUO, the animals were anaesthetized and sacrificed by exsanguination. Thereafter, the kidneys were removed and renal fibrosis was assessed on the basis of the expression of pro-inflammatory and pro-fibrotic markers, and a histological assessment of the renal tissue.

[4] = target: FP receptor (Homo sapiens (Human), UniProt P43088); assay: In vitro test of inhibition of human FP receptor activity (PGF2α-induced calcium flux in FP-expressing CHEM1 cells); format: cell-based; conditions: PGF2α 2 nM, some mean values of multiple determinations
Summary of the method: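 FP antagonism in FP-expressing CHEM1 cells loaded with Fluo-8. Compound preincubated 10 min at 37° C, then receptor stimulated with 2 nM (final) PGF2α in calcium-free Tyrode with 2 mM CaCl2.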

FP receptor, sequence (P43088 whole entry): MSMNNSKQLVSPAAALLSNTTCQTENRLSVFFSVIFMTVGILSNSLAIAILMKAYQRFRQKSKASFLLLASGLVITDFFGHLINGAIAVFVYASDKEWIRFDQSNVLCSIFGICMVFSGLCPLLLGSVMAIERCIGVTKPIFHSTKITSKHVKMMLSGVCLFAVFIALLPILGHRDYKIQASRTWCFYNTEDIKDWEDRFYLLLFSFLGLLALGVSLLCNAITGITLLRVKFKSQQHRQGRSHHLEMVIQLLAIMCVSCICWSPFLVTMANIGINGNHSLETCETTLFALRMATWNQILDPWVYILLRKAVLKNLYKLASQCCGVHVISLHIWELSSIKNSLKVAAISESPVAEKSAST

Compound: Cc1c(N2CCCC2)nc2ccc(Br)cc2c1C(=O)NCC(CCC(=O)O)c1ccccc1Cl (single isomer, unassigned; (+)) [Example 35, (+)-5-({[6-bromo-3-methyl-2-(pyrrolidin-1-yl)quinolin-4-yl]carbonyl}amino)-4-(2-chlorophenyl)pentanoic acid]
Hydroxyproline formation and fibrosis (result in words) ([1]; 10 and 30 mg/kg po bid, versus silica-treated control): significant reduction in the hydroxyproline formation and fibrosis

Compound: Cc1c(N2CCCC2)nc2ccc(Br)cc2c1C(=O)NCC(CCC(=O)O)c1ccccc1Cl.Cl (single isomer, unassigned; (+)) [Example 284, (+)-5-({[6-Bromo-3-methyl-2-(pyrrolidin-1-yl)quinolin-4-yl]carbonyl}amino)-4-(2-chlorophenyl)pentanoic acid hydrochloride]
Progression of fibrosis (result in words) ([2]; 2-week study in mice with hepatic fibrosis, p<0.01, two-way ANOVA with Dunnett post-hoc test): significant reduction in the progression of fibrosis
Sirius red [% liver area] ([2]; CCl4 + 100 mg/kg, oral twice daily, 2 weeks, mean ± SD): 3.51 ± 0.65 % liver area
SR/FG positive area [%] ([3]; 30 mg/kg): 38.74 ± 9.12%
αSMA positive area [%] ([3]; 30 mg/kg): 25.19 ± 3.23%
Gene expression CTGF ([3]; 30 mg/kg): 105.67 ± 52.33%
Gene expression Col1α1 ([3]; 30 mg/kg): 76.70 ± 36.22%
Gene expression Col3α1 ([3]; 30 mg/kg): 103.74 ± 37.60%
Gene expression Col4α1 ([3]; 30 mg/kg): 71.15 ± 20.20%
Gene expression IL1-β ([3]; 30 mg/kg): 81.91 ± 31.93%
Gene expression IL-6 ([3]; 30 mg/kg): 207.04 ± 389.13%
Gene expression KC ([3]; 30 mg/kg): 65.02 ± 15.98%
Gene expression MCP-1 ([3]; 30 mg/kg): 93.98 ± 26.32%
Gene expression TGF-β ([3]; 30 mg/kg): 67.57 ± 32.67%
Gene expression αSMA ([3]; 30 mg/kg): 72.97 ± 39.94%
SR/FG positive area [%] ([3]; 60 mg/kg): 34.66 ± 7.59%
αSMA positive area [%] ([3]; 60 mg/kg): 22.28 ± 4.04%
Gene expression CTGF ([3]; 60 mg/kg): 102.07 ± 26.99%
Gene expression Col1α1 ([3]; 60 mg/kg): 38.90 ± 13.11%
Gene expression Col3α1 ([3]; 60 mg/kg): 126.15 ± 46.51%
Gene expression Col4α1 ([3]; 60 mg/kg): 45.97 ± 8.44%
Gene expression IL1-β ([3]; 60 mg/kg): 112.05 ± 71.38%
Gene expression IL-6 ([3]; 60 mg/kg): 494.83 ± 850.76%
Gene expression KC ([3]; 60 mg/kg): 50.69 ± 22.02%
Gene expression MCP-1 ([3]; 60 mg/kg): 117.41 ± 38.15%
Gene expression TGF-β ([3]; 60 mg/kg): 31.79 ± 9.06%
Gene expression αSMA ([3]; 60 mg/kg): 51.72 ± 21.33%
Hydroxyproline [ng/lung] ([1]; Silica + 10 mg/kg po bid): 2341 ± 54.99 (n = 12) ng/lung
Hydroxyproline [ng/lung] ([1]; Silica + 30 mg/kg po bid): 2185 ± 86.79 (n = 12) ng/lung

Compound: Cc1c(N2CCCC(C)C2)nc2ccc(Br)cc2c1C(=O)NCC(CCC(=O)O)c1ccccc1OC(F)(F)F (centres unmarked) [Example 140, 5-[({6-Bromo-3-methyl-2-[3-methylpiperidin-1-yl]quinolin-4-yl}carbonyl)amino]-4-[2-(trifluoromethoxy)phenyl]pentanoic acid]
IC50 [4]: 2.3 nM

Compound: Cc1c(N2CCCC(F)C2)nc2ccc(Br)cc2c1C(=O)NCC(CCC(=O)O)c1c(F)ccc(F)c1Cl (centres unmarked) [Example 156, 5-[({6-Bromo-2-[3-fluoropiperidin-1-yl]-3-methylquinolin-4-yl}carbonyl)amino]-4-(2-chloro-3,6-difluorophenyl)pentanoic acid]
IC50 [4]: 2.5 nM

Compound: Cc1c(N2CCCC(C)C2)nc2ccc(Br)cc2c1C(=O)NCC(CCC(=O)O)c1c(F)ccc(F)c1Cl (centres unmarked) [Example 157, 5-[({6-Bromo-3-methyl-2-[3-methylpiperidin-1-yl]quinolin-4-yl}carbonyl)amino]-4-(2-chloro-3,6-difluorophenyl)pentanoic acid]
IC50 [4]: 1.7 nM

Compound: CCC1CCCN(c2nc3ccc(Br)cc3c(C(=O)NCC(CCC(=O)O)c3c(F)ccc(F)c3Cl)c2C)C1 (centres unmarked) [Example 158, 5-[({6-Bromo-2-[3-ethylpiperidin-1-yl]-3-methylquinolin-4-yl}carbonyl)amino]-4-(2-chloro-3,6-difluorophenyl)pentanoic acid]
IC50 [4]: 1.6 nM

Compound: (+)-5-({[6-Bromo-3-methyl-2-(piperidin-1-yl)quinolin-4-yl]carbonyl}amino)-4-(2,3,6-trichlorophenyl)pentanoic acid [Example 175]
IC50 [4]: 160 nM

Compound: (+)-5-[({6-Bromo-3-methyl-2-[(^2H8)pyrrolidin-1-yl]quinolin-4-yl}carbonyl)amino]-4-[2-(trifluoromethyl)phenyl]pentanoic acid [Example 278]
IC50 [4]: 34 nM

Compound: (+)-5-[({6-Bromo-3-methyl-2-[(^2H10)piperidin-1-yl]quinolin-4-yl}carbonyl)amino]-4-[2-(trifluoromethyl)phenyl]pentanoic acid [Example 270]
IC50 [4]: 3.3 nM

Compound: (−)-5-[({6-Bromo-3-methyl-2-[(^2H10)piperidin-1-yl]quinolin-4-yl}carbonyl)amino]-4-[2-(trifluoromethoxy)phenyl]pentanoic acid [Example 272]
IC50 [4]: 0.85 nM

Further lines, results first:

IC50 [4]: 9.1 nM
Compound: Cc1c(N2CCCC(F)C2)nc2ccc(Br)cc2c1C(=O)NCC(CCC(=O)O)c1c(F)cccc1C(F)(F)F (centres unmarked) [Example 169, 5-[({6-Bromo-2-[3-fluoropiperidin-1-yl]-3-methylquinolin-4-yl}carbonyl)amino]-4-[2-fluoro-6-(trifluoromethyl)phenyl]pentanoic acid]

IC50 [4]: 2.7 nM
Compound: CCC1CCCN(c2nc3ccc(Br)cc3c(C(=O)NCC(CCC(=O)O)c3c(F)cccc3C(F)(F)F)c2C)C1 (centres unmarked) [Example 170, 5-[({6-Bromo-2-[3-ethylpiperidin-1-yl]-3-methylquinolin-4-yl}carbonyl)amino]-4-[2-fluoro-6-(trifluoromethyl)phenyl]pentanoic acid]

IC50 [4]: 14 nM
Compound: Cc1c(N2CCCC(F)C2)nc2ccc(Br)cc2c1C(=O)NCC(CCC(=O)O)c1c(Cl)ccc(Cl)c1Cl (centres unmarked) [Example 180, 5-[({6-Bromo-2-[3-fluoropiperidin-1-yl]-3-methylquinolin-4-yl}carbonyl)amino]-4-(2,3,6-trichlorophenyl)pentanoic acid]

IC50 [4]: 6.6 nM
Compound: CCC1CCCN(c2nc3ccc(Br)cc3c(C(=O)NCC(CCC(=O)O)c3c(Cl)ccc(Cl)c3Cl)c2C)C1 (centres unmarked) [Example 181, 5-[({6-Bromo-2-[3-ethylpiperidin-1-yl]-3-methylquinolin-4-yl}carbonyl)amino]-4-(2,3,6-trichlorophenyl)pentanoic acid]

IC50 [4]: 25 nM
Compound: Cc1c(N2CCCC(F)C2)nc2ccc(Br)cc2c1C(=O)NCC(CCC(=O)O)c1c(F)cccc1F (centres unmarked) [Example 253, 5-[({6-Bromo-2-(3-fluoropiperidin-1-yl)-3-methylquinolin-4-yl}carbonyl)amino]-4-(2,6-difluorophenyl)pentanoic acid]

IC50 [4]: 2.8 nM
Compound: CCC1CCCN(c2nc3ccc(Br)cc3c(C(=O)NCC(CCC(=O)O)c3c(F)cccc3F)c2C)C1 (centres unmarked) [Example 254, 5-[({6-Bromo-2-(3-ethylpiperidin-1-yl)-3-methylquinolin-4-yl}carbonyl)amino]-4-(2,6-difluorophenyl)pentanoic acid]

IC50 [4]: 30 nM
Compound: Cc1c(N2CCCC(F)C2)nc2ccc(Br)cc2c1C(=O)NCC(CCC(=O)O)c1cc(F)ccc1F (centres unmarked) [Example 264, 5-[({6-Bromo-2-(3-fluoropiperidin-1-yl)-3-methylquinolin-4-yl}carbonyl)amino]-4-(2,5-difluorophenyl)pentanoic acid]
